PMC5638611, “Effects of glutamate and ivermectin on single glutamate-gated chloride channels of the parasitic nematode H. contortus” (PLoS Pathogens, 2017)

How the values were obtained:
[1] = biological target: T1, glutamate-gated chloride channel receptor α (avr-14b) (GluClR), homomeric, G36'A mutant (Haemonchus contortus, UniProt O46124, G329A); assay: outside-out patch single-channel recording; direct activation by […] IVM; assay type: cell-based
T1 construct: gene gbr-2; homomeric avr-14b subunit expressed in HEK AD293 cells
T1 sequence (O46124 31-438 G329A): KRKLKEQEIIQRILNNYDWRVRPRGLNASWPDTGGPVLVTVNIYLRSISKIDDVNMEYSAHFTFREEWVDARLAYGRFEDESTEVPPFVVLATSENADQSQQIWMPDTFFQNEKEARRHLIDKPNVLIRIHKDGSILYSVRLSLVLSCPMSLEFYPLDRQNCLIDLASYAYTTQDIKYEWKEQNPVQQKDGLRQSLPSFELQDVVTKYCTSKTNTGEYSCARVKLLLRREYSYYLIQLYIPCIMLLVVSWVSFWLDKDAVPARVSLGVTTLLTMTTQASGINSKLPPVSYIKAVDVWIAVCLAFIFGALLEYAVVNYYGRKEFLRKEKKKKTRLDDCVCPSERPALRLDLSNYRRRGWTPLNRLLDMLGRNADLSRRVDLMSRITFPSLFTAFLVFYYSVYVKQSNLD

[2] = biological target: T2, glutamate-gated chloride channel receptor α (avr-14b) (GluClR), homomeric (Haemonchus contortus, UniProt O46124); assay: outside-out patch single-channel recording; direct activation by […] IVM, and potentiation of […] glutamate; assay type: cell-based
T2 construct: gene gbr-2; homomeric avr-14b subunit expressed in HEK AD293 cells
T2 sequence (O46124 entry or part of it): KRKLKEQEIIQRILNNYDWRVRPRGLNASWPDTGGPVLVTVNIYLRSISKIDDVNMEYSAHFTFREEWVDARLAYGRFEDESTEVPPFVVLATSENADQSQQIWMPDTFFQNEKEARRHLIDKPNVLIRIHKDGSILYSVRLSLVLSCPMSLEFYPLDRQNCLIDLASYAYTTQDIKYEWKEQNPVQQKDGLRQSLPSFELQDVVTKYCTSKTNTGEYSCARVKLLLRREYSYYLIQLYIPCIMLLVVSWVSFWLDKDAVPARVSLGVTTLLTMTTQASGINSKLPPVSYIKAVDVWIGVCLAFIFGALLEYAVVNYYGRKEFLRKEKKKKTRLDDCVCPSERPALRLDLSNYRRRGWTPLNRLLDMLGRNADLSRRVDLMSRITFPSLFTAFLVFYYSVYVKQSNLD

With CC[C@H](C)[C@H]1O[C@]2(CC[C@@H]1C)C[C@@H]1C[C@@H](C/C=C(\C)[C@@H](O[C@H]3C[C@H](OC)[C@@H](O[C@H]4C[C@H](OC)[C@@H](O)[C@H](C)O4)[C@H](C)O3)[C@@H](C)/C=C/C=C3\CO[C@@H]4[C@H](O)C(C)=C[C@@H](C(=O)O1)[C@]34O)O2 [Ivermectin] the “outside-out patch single-channel recording; direct activation by 5 nM IVM” value [1] was 5 nM and the “outside-out patch single-channel recording; direct activation by 5 nM IVM, and p” value [2] was 5 nM.
